Assay results published in patent publication US20240197687A1, “METHODS OF TREATING NEUROINFLAMMATION AND INHIBITING MONOAMINE OXIDASE-A AND RESTORING/UPREGULATING/INCREASING IL-13 AND AND PGC-1 BY ADMINISTERING ORAL DOSAGE FORM CONTAINING MICRONIZED AND NONMICRONIZED PARTICULATE METAXALONE, ALGINIC ACID AND PROPYLENE GLYCOL ALGINATE” (Primus Pharmaceuticals, Inc., priority 2022, published 2024).

Assays:
[1] = system: rat periodontal disease model; settings: MAO up-regulation triggered by LPS; cited from earlier work
[2] = system: paclitaxel-induced neuropathic pain; settings: via induction of the NRF-2/HO-1 signaling pathway in the spinal cord; cited from earlier work
HMC3 microglial cells = experiment: MTT cell viability assay; settings: 24, 48 and 72 h, metaxalone 10, 20, 40 μg/mL, staurosporine 100 nM positive control
RIM rats = settings: melatonin supplementation, gastrocnemius muscle; cited from earlier work
[3] = system: rat model of ischemia-reperfusion injury; settings: cited from earlier work
CCI mice = settings: cited from earlier work
FM fibroblasts = settings: AMPK activation; cited from earlier work
PINP rats = settings: cited from earlier work

In the case of `NNCCc1ccccc1` [phenelzine], the oxidative stress [1] is given as “significantly reduce”.

For `Cc1c(-c2cnccn2)ssc1=S` [oltipraz], the paclitaxel-induced neuropathic pain [2] is listed as “significantly attenuate”.

For `CN[C@@H]1C[C@H]2O[C@@](C)([C@@H]1OC)n1c3ccccc3c3c4c(c5c6ccccc6n2c5c31)C(=O)NC4` [staurosporine], the “cell viability (MTT)” value (HMC3 microglial cells) was “significant reduction in cell viability”.

In the case of `COc1ccc2[nH]cc(CCNC(C)=O)c2c1` [melatonin], the “studied parameters (PGC-1α, Mfn2, CoQ10), oxidative stress” value (RIM rats) is given as “significantly preserved all the studied parameters”.

In the case of `O=C(NCCN1CCOCC1)c1ccc(Cl)cc1` [moclobemide], the inflammatory process [3] is listed as “attenuate”.

In the case of `CC1(C)CC[C@]2(NC(=O)C(C)(F)F)CC[C@]3(C)[C@H](C(=O)C=C4[C@@]5(C)C=C(C#N)C(=O)C(C)(C)[C@@H]5CC[C@]43C)[C@@H]2C1` [RTA-408], the “mechanical allodynia (von Frey test)” value (CCI mice; CCI mice, dose-dependent) is listed as “significantly reversed”, the “thermal hyperalgesia (Hargreaves plantar test)” value (CCI mice; CCI mice, dose-dependent) is listed as “significantly reversed” and the “mitochondrial biogenesis (MB)” value (CCI mice; L4-6 spinal cord of CCI mice, NRF-2-dependent) is listed as “significantly restored”. For the same compound, the “activity of NRF-2” value (CCI mice; L4-6 spinal cord of CCI mice) was “increased”.

For `CN(C)C(=N)N=C(N)N` [metformin], the “response to moderate oxidative stress and mitochondrial metabolism” value (FM fibroblasts) is listed as “improved”.

For `COc1ccc(CC(C)NCC(O)c2ccc(O)c(NC=O)c2)cc1` (stereo not drawn) [formoterol], the “ADRB2 expression, mtDNA copy number and PGC-1α, NRF-1, TFAM protein expression” value (PINP rats; spinal cord of PINP rats) is listed as “restored”.

In the case of `Cc1ccc(CN(CC(O)COc2cccc3[nH]ccc23)C(C)(C)C)cc1` (stereo not drawn) [SR-18292], the “analgesic effect of formoterol against PINP in presence of PGC-1α inhibitor” value (PINP rats; PINP rats) is listed as “partially abolished”.
